# Results reported in publication PMC3651882 (Bioconjugate chemistry, 2013).
# How the values were obtained:
# Type in all cases: cell-based, human
# KB-V1 cells [1] = experiment: Cellular uptake by flow cytometry; details: for Time dependence of cell fluorescence intensity (in words): 5 μM, 1, 2 and 4 h
# KB-3-1 cells [2] = experiment: Cellular uptake by flow cytometry; details: 2.5-15 μM, 2 h
# KB-3-1 cells [3] = experiment: Cytotoxicity, SRB method; details: 50 NM as printed, 2 h incubation
# KB-V1 cells [4] = experiment: Cytotoxicity, SRB method; details: 50 μM, 2 h incubation
# KB-3-1 cells [5] = experiment: Subcellular colocalization, confocal microscopy; details: 15 μM, 2 h, Lysotracker Green, Hoechst 33342
# KB-V1 cells [6] = experiment: Subcellular colocalization, confocal microscopy; details: 15 μM, 2 h, Lysotracker Green, Hoechst 33342
Structure (SMILES),Time dependence of cell fluorescence intensity (in words) (KB-V1 cells [1]),"Cellular uptake (in words) (KB-V1 cells [1]; 2.5-15 μM, 2 h)",Cellular uptake (in words) (KB-3-1 cells [2]),Cytotoxicity (in words) (KB-3-1 cells [3]),Cytotoxicity (in words) (KB-V1 cells [4]),"Cells killed (cell death) (KB-V1 cells [4]; then 46 h fresh medium, SRB)",Subcellular location (in words) (KB-3-1 cells [5]),Subcellular location (in words) (KB-V1 cells [6])
"O=C(O)c1ccc2c(c1)C(=O)OC21c2ccc(O)cc2Oc2cc(O)ccc21 [5-FAM, 5-carboxyfluorescein]",did not change with time,,,,,,,
"COc1cccc2c1C(=O)c1c(O)c3c(c(O)c1C2=O)C[C@@](O)(C(=O)CO)C[C@@H]3O[C@H]1C[C@H](N)[C@H](O)[C@H](C)O1 [Dox, doxorubicin]",did not change with time,greatly inhibited,very efficient,nearly all the cells were killed,no significant cytotoxicity,14%,no preference to accumulate in any subcellular organelles,dim red fluorescence was observed only on the membrane
